Experimental data from ChEMBL document CHEMBL4265944, “Novel amide derivatives of 1,3-dimethyl-2,6-dioxopurin-7-yl-alkylcarboxylic acids as multifunctional TRPA1 antagonists and PDE4/7 inhibitors: A new approach for the treatment of pain” (Eur J Med Chem, 2018).
Active and inactive are the calls of the source. The calls are words filed in the database; no cut-off is given here.

How the values were obtained:
[1] = biological target: Transient receptor potential cation channel subfamily A member 1 (Homo sapiens) (UniProt O75762); experiment: Antagonist activity at human TRPA1 expressed in HEK293 cells assessed as decrease in flufenamic acid-evoked increase in intracellular calcium level at 100 uM measured for 180 secs with 1 sec interval by Fluo4-AM dye-based fluorescence assay relative to control; assay type: cell-based
Transient receptor potential cation channel subfamily A member 1 (Homo sapiens), sequence (O75762 whole entry): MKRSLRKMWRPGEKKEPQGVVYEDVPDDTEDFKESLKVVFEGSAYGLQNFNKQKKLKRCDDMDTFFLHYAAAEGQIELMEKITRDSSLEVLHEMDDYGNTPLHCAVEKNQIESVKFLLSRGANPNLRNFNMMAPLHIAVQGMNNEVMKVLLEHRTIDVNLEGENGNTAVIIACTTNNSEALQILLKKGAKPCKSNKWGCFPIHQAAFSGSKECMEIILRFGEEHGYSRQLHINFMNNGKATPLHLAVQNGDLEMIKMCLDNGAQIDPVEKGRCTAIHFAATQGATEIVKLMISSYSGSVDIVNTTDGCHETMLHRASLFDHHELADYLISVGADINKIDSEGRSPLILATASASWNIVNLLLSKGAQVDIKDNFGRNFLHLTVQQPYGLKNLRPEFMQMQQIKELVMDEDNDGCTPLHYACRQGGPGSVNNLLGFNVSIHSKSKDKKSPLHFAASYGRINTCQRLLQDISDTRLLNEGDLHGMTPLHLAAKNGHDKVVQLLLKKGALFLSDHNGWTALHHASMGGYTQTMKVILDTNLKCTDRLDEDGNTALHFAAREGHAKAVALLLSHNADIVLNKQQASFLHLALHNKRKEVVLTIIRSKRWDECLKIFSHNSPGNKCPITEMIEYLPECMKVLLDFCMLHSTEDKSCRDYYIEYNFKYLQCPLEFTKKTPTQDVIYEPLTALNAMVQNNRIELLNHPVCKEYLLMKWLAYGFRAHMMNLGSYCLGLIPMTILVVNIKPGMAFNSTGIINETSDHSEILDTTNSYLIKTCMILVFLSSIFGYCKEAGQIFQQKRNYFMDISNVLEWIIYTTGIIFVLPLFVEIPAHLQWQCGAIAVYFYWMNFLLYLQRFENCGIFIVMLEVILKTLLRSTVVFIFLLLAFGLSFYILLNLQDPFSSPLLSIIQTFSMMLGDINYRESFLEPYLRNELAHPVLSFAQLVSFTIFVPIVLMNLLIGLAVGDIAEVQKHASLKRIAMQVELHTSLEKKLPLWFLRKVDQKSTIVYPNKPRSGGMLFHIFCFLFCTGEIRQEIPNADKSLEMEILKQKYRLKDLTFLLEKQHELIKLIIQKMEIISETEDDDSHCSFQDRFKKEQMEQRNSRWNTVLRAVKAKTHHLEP

[2] = biological target: 3',5'-cyclic-AMP phosphodiesterase 4B (Homo sapiens, UniProt Q07343); experiment: Inhibition of recombinant human PDE4B using cAMP as substrate after 10 mins by PDE-Glo Phosphodiesterase Assay
3',5'-cyclic-AMP phosphodiesterase 4B, sequence (Q07343 whole entry): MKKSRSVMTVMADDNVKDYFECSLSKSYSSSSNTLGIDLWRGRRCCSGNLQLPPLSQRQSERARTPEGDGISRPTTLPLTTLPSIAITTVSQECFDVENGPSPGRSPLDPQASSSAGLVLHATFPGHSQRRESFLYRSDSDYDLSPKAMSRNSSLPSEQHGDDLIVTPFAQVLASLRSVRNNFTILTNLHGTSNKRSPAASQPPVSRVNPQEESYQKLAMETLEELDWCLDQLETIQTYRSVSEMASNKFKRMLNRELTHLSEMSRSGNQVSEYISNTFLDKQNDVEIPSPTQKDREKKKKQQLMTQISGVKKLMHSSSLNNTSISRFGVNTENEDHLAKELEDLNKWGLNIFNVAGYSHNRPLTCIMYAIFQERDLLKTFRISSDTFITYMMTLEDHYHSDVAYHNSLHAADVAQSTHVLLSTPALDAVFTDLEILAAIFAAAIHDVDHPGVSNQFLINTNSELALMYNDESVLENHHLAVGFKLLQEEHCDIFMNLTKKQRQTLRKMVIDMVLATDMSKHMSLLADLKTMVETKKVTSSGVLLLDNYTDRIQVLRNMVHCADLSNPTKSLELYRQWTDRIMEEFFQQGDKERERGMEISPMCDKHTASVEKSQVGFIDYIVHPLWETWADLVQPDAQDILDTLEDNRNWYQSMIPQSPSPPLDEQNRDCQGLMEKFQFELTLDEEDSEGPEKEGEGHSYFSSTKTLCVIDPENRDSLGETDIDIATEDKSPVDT

[3] = biological target: High affinity 3',5'-cyclic-AMP phosphodiesterase 7A (Homo sapiens, UniProt Q13946); experiment: Inhibition of recombinant human PDE7A using cAMP as substrate after 10 mins by PDE-Glo Phosphodiesterase Assay
High affinity 3',5'-cyclic-AMP phosphodiesterase 7A, sequence (Q13946 whole entry): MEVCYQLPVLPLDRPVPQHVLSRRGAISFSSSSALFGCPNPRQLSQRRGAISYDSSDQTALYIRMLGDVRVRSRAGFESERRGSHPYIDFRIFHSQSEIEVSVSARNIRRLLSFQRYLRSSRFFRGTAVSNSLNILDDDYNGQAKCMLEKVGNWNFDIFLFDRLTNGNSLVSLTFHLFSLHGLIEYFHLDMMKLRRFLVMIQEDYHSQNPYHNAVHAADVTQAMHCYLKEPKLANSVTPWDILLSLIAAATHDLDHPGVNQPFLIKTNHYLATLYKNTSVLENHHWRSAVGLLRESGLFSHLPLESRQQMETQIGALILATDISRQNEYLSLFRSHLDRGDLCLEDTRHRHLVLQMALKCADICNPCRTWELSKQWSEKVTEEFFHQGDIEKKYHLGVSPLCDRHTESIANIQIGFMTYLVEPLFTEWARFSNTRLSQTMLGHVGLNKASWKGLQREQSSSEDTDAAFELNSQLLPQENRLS

[4] = biological target: Transient receptor potential cation channel subfamily A member 1 (Homo sapiens) (UniProt O75762); experiment: Antagonist activity at human TRPA1 expressed in HEK293 cells assessed as decrease in flufenamic acid-evoked increase in intracellular calcium level at 10 uM measured for 180 secs with 1 sec interval by Fluo4-AM dye-based fluorescence assay relative to control; assay type: cell-based
[5] = biological target: Transient receptor potential cation channel subfamily A member 1 (Homo sapiens) (UniProt O75762); experiment: Antagonist activity at human TRPA1 expressed in HEK293 cells assessed as decrease in flufenamic acid-evoked increase in intracellular calcium level at 1 uM measured for 180 secs with 1 sec interval by Fluo4-AM dye-based fluorescence assay relative to control; assay type: cell-based
[6] = test system: Rattus norvegicus; experiment: Antiallodynic activity in Wistar rat assessed as reduction in oxaliplatin-induced neuropathic pain in early phase by measuring paw withdrawal force at 5 to 10 mg/kg, ip measured after 60 mins by Von Frey test; assay type: functional, organism-based
[7] = test system: Rattus norvegicus; experiment: Antiallodynic activity in Wistar rat assessed as reduction in oxaliplatin-induced neuropathic pain in late phase by measuring paw withdrawal force at 5 to 10 mg/kg, ip measured after 60 mins by Von Frey test; assay type: functional, organism-based
[8] = test system: Rattus norvegicus; experiment: Anti-inflammatory activity in Wistar rat assessed as inhibition of carrageenan-induced paw edema at 20 mg/kg, ip measured at 1 hr post dose relative to control; assay type: functional
[9] = test system: Rattus norvegicus; experiment: Anti-inflammatory activity in Wistar rat assessed as inhibition of carrageenan-induced paw edema at 20 mg/kg, ip measured at 2 hrs post dose relative to control; assay type: functional
[10] = test system: Rattus norvegicus; experiment: Anti-inflammatory activity in Wistar rat assessed as inhibition of carrageenan-induced paw edema at 20 mg/kg, ip measured at 3 hrs post dose relative to control; assay type: functional

Compound `CCOc1nc2c(c(=O)n(C)c(=O)n2C)n1CCCC(=O)Nc1ccc(C(C)C)cc1` has an inhibition [1] of 10%, an IC50 [2] of 32.3 µM and an IC50 [3] of 96.3 µM.
`CCOc1nc2c(c(=O)n(C)c(=O)n2C)n1CC(=O)Nc1ccc(C(C)C)cc1` showed an inhibition [1] of 20%, an IC50 [2] of over 200 µM and an IC50 [3] of over 200 µM.
`CCCOc1nc2c(c(=O)n(C)c(=O)n2C)n1CCCC(=O)Nc1ccc(C(C)(C)C)cc1` was tested, and the inhibition [1] was 52%, the inhibition [4] was 5% and the inhibition [5] was 5%. The IC50 [2] was 21.1 µM and the IC50 [3] was 7.76 µM.
In the case of `CCOc1nc2c(c(=O)n(C)c(=O)n2C)n1CC(=O)Nc1cccc(Cl)c1`, the inhibition [1] is reported as 5%, the IC50 [2] is reported as over 200 µM and the IC50 [3] is reported as over 200 µM.
`COc1nc2c(c(=O)n(C)c(=O)n2C)n1CCCC(=O)Nc1cccc(Cl)c1` showed an inhibition [1] of 9%, an IC50 [2] of over 200 µM and an IC50 [3] of over 200 µM.
`CCCOc1nc2c(c(=O)n(C)c(=O)n2C)n1CCCC(=O)Nc1ccc(C(C)CC)cc1` (stereo unspecified) showed an inhibition [1] of 5%, an IC50 [2] of 16.8 µM and an IC50 [3] of 9.06 µM.
`CCCCOc1nc2c(c(=O)n(C)c(=O)n2C)n1CCCC(=O)Nc1ccc(C(C)CC)cc1` (stereo unspecified) was tested, and the inhibition [1] was 14%, the IC50 [2] was 110 µM and the IC50 [3] was 20 µM.
With `CCOc1nc2c(c(=O)n(C)c(=O)n2C)n1CCCC(=O)Nc1ccc(C(C)(C)C)cc1` the inhibition [1] was 0%, the IC50 [2] was 42.5 µM and the IC50 [3] was 54.3 µM.
In the case of `CC(C)C[C@H](CN)CC(=O)O`, the Activity [6] is reported as “Active” and the Activity [7] is reported as “Active”.
Compound `CC(C(=O)O)c1cccc(C(=O)c2ccccc2)c1` (stereo unspecified) [KETOPROFEN] has an inhibition in vivo at 20 mg/kg [8] of 23.3%, an inhibition in vivo at 20 mg/kg [9] of 54.2% and an inhibition in vivo at 20 mg/kg [10] of 66%.
With `CCCOc1nc2c(c(=O)n(C)c(=O)n2C)n1CCCC(=O)Nc1cc(C(C)(C)C)ccc1O` the inhibition [1] was 38%, the inhibition [4] was 1% and the inhibition [5] was 3%. It also gave an IC50 [2] of 14.7 µM and an IC50 [3] of 41.1 µM.
